System: Pseudomonas aeruginosa strain 6077
Assay: Lethal pneumonia challenge in BALB/c mice
Assay type: in vivo
Settings: MEM 2.3 mg/kg alone or DMAb-DVSF3 100 μg, lethal PA 6077
Protocol: The unrelated dengue virus DMAb-DVSF3^20 was included as a control. A fourth group of animals received an intraperitoneal (IP) injection of purified protein IgG ABC123 (2 mg/kg) on day −1 before challenge. […] Animals were monitored for 6 days following intranasal challenge for survival as described in^16. Briefly, animals were anesthetized with ketamine and xylazine followed by intranasal administration of the bacterial inoculum contained in 0.05 ml. […] IL-1β, IL-6 and KC/GRO were quantified from the supernatant of lung homogenates using a multiplex kit (Meso Scale Diagnostics) according to the manufactures instructions. For DMAb and meropenem (MEM) combination experiments, MEM was administered subcutaneously 4 hours after infection.

## C[C@@H](O)[C@H]1C(=O)N2C(C(=O)O)=C(S[C@@H]3CN[C@H](C(=O)N(C)C)C3)[C@H](C)[C@H]12 [MEM, meropenem, reference compound]
  survival, DMAb and meropenem combination experiment: did not survive
